From PubChem BioAssay (NCI)
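Five compound concentrations were applied to cells in 96-well plates for 48 hours; endpoints were derived by simple linear interpolation of the resulting dose-response curve. Here, GI50 denotes the concentration required for 50% inhibition of growth. TGI: concentration producing complete growth inhibition.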

Tests used:
Test in all cases: DTP human tumour cell line panel, 48 h
SNB-19 CNS = tested on: SNB-19 CNS
NCI-H23 lung = tested on: NCI-H23 lung
A549 NSCLC = tested on: A549 NSCLC
M14 melanoma = tested on: M14 melanoma
OVCAR-4 ovarian = tested on: OVCAR-4 ovarian
RPMI-8226 leukemia = tested on: RPMI-8226 leukemia
MCF7 breast = tested on: MCF7 breast
KM12 colon = tested on: KM12 colon
NCI-H522 lung = tested on: NCI-H522 lung
MOLT-4 leukemia = tested on: MOLT-4 leukemia

| SMILES | TGI (SNB-19 CNS) [µM] | TGI (NCI-H23 lung) [µM] | TGI (A549 NSCLC) [µM] | TGI (M14 melanoma) [µM] | TGI (OVCAR-4 ovarian) [µM] | TGI (RPMI-8226 leukemia) [µM] | TGI (MCF7 breast) [µM] | TGI (KM12 colon) [µM] | TGI (NCI-H522 lung) [µM] | TGI (MOLT-4 leukemia) [µM] | GI50 (SNB-19 CNS) [µM] | GI50 (NCI-H23 lung) [µM] | GI50 (OVCAR-4 ovarian) [µM] | GI50 (RPMI-8226 leukemia) [µM] | GI50 (MCF7 breast) [µM] | GI50 (MOLT-4 leukemia) [µM] | GI50 (A549 NSCLC) [µM] | GI50 (KM12 colon) [µM] | GI50 (NCI-H522 lung) [µM] | GI50 (M14 melanoma) [µM] |
| --- | --- | --- | --- | --- | --- | --- | --- | --- | --- | --- | --- | --- | --- | --- | --- | --- | --- | --- | --- | --- |
| CCc1nc(N)nc(N)c1-c1ccc(Cl)c(Cl)c1 | > 100 | > 100 | > 100 | > 100 | > 100 | > 100 | > 100 | > 100 | > 100 | – | – | – | – | – | – | – | – | – | – | – |
| COc1ccccc1C1C(C(=O)O)=C(CO)Oc2cc3c(cc21)OCO3 (stereo unspecified) | > 100 | > 100 | – | > 100 | – | > 100 | – | – | > 100 | > 100 | – | – | – | – | – | – | – | – | – | – |
| Cc1ccc(S(=O)(=O)Oc2cc(-c3ccccc3)nc3ccccc23)cc1 | 12.3 | 12.2 | > 78.4 | – | 16.2 | 7.71 | > 48.4 | > 43.5 | 3.7 | > 100 | – | – | – | – | – | – | – | – | – | – |
| NC(Cc1cccc([N+](=O)[O-])c1)C(=O)O (stereo unspecified) | > 100 | > 100 | > 100 | > 100 | > 100 | > 100 | > 100 | > 100 | > 100 | > 100 | – | – | – | – | – | – | – | – | – | – |
| O=[N+]([O-])c1ccc(C=C2C(Cl)=C(Cl)C(Cl)=C2Cl)cc1 | > 100 | 5.16 | – | – | 6.1 | 5.16 | 10.9 | – | – | > 100 | 9.68 | 2.05 | 2.42 | 1.84 | 2.78 | 3.07 | – | – | – | – |
| CC1CC=CC(O)C1 (stereo unspecified) | > 100 | > 100 | > 100 | – | > 100 | > 100 | > 100 | > 100 | > 100 | > 100 | – | – | – | – | – | – | – | – | – | – |
| Cc1ccc2c(n1)C(=O)c1[nH]c3ccccc3c1C2=O | > 100 | 3.79 | 4.37 | – | 2.35 | 12.3 | 2.63 | 19.6 | 9.05 | 18.9 | 2.7 | 0.687 | 1.13 | 2.25 | 0.586 | 3.25 | 1.61 | 3.1 | 2.48 | – |
| NCCCNc1nc2ccccc2c2c(=O)c3cc(OC(F)(F)F)ccc3sc12 | 3.12 | 3.09 | – | 3.16 | – | – | – | – | – | – | 1.63 | 1.62 | – | – | – | – | – | – | – | 1.67 |
| CCC[CH2][Ge]([CH2]CCC)([CH2]CCC)[O]C(=O)CC(=O)c1ccccc1 | 24 | 14.8 | 15.9 | 8.86 | 21.3 | > 100 | – | 16 | 10.4 | 18 | 11.7 | 0.28 | 2.49 | 0.959 | – | 0.457 | 0.735 | 0.883 | 0.261 | 1.42 |
| C[C@]12C=CC(=O)C=C1CC[C@H]1[C@@H]3C[C@@H](O)[C@](O)(C(=O)CO)[C@@]3(C)C[C@H](O)[C@@]12F | > 100 | > 100 | > 100 | > 100 | > 100 | > 100 | – | > 100 | > 100 | > 100 | – | – | – | – | – | – | – | – | – | – |
| NC(N)=NCCN=C(N)N | > 100 | > 100 | > 100 | > 100 | > 100 | > 100 | > 100 | > 100 | > 100 | > 100 | – | – | – | – | – | – | – | – | – | – |
| NC(CCCCP(=O)(O)O)C(=O)O (stereo unspecified) | > 100 | > 100 | > 100 | > 100 | > 100 | > 100 | – | > 100 | > 100 | > 100 | – | – | – | – | – | – | – | – | – | – |
| Cc1nc(N)sc1-c1ccnc(Nc2ccc(N3CCOCC3)cc2)n1 | > 100 | > 100 | > 100 | > 100 | > 100 | > 38.3 | > 100 | > 100 | 87.5 | > 56.1 | > 49.5 | 1.6 | > 21.7 | 1.66 | 1.43 | 0.497 | 1.13 | 1.59 | 1.41 | 2.66 |
| C=CC(Br)(CBr)CCC(Cl)C(C)C (stereo unspecified) | 6.82 | 8.82 | 18 | 3.18 | 3.29 | – | 3.07 | 2.95 | 2.8 | 4.31 | – | – | – | – | – | – | – | – | – | – |
| CC(=O)Oc1cccc2c(/C=N/NC(N)=S)ncc(C)c12 | 16.3 | 13.4 | 25.6 | 3.18 | 38.6 | 24.5 | 3.32 | 15.5 | 32.5 | > 62.8 | – | – | – | – | – | – | – | – | – | – |
| COc1ccc(C2CC(c3cccc(Nc4ccncc4)c3)=NN2c2cc(Cl)cc(Cl)c2)cc1 (stereo unspecified) | – | 3.44 | – | – | 3.12 | – | 3.3 | 3.3 | – | 4.97 | – | 1.79 | 1.67 | – | 1.67 | 2.04 | – | 1.77 | – | – |
| O=NN(CCCl)C(=O)NC1CCSc2ccccc21 (stereo unspecified) | > 100 | > 100 | > 100 | – | > 100 | > 100 | > 100 | > 100 | > 100 | 99.1 | – | – | – | – | – | – | – | – | – | – |
| COc1cc(C[S+]2CCCC2)c(SC)cc1C[S+]1CCCC1 | – | > 100 | > 100 | > 100 | > 100 | > 100 | – | > 100 | > 100 | > 100 | – | – | – | – | – | – | – | – | – | – |
| CC(=O)OC1CCC2(C)C3CCC4(C)C(c5ccc(=O)oc5)CC5OC54C3CCC2(O)C1 (stereo unspecified) | 31.8 | 2.98 | 2.15 | – | 5.61 | 14.1 | 14.8 | 10.7 | 2.04 | 0.934 | – | – | – | – | – | – | – | – | – | – |
| c1ccc(N=C2SC(=NC3CCCCC3)N(C3CCCCC3)C2=Nc2ccccc2)cc1 | > 100 | > 100 | – | > 100 | – | > 100 | > 100 | > 100 | > 100 | > 100 | – | – | – | – | – | – | – | – | – | – |
| O=C(OC(=O)n1ccc2ccccc21)n1ccc2ccccc21 | > 100 | > 100 | > 100 | – | > 100 | > 100 | > 100 | > 100 | – | > 100 | – | – | – | – | – | – | – | – | – | – |
